Experimental data: US20160222122A1, “INTEGRIN-MODULATING THERAPIES FOR TREATING FIBROTIC DISEASE” (The Johns Hopkins University, priority 2013, published 2016)
“Also recorded” adds a separate entry of the source.

What was measured:
[1] = target: T1, integrin αvβ3 in its active conformation (Homo sapiens, UniProt P05106+P06756); experiment: Specificity of WOW-1 antibody for active integrin αvβ3 in control fibroblasts by flow cytometry; type: cell-based; conditions: 10 mM EDTA, 2 mM MnCl2
T1 construct: endogenous in cells; host or cells: control fibroblasts (read as primary human dermal fibroblasts from healthy controls)
Experimental: For histograms, FlowJo software divides all events into 256 “bins,” which are numerical ranges for the parameter on the x-axis. The percent of maximum (yaxis) is the number of cells in each bin divided by the number of cells in the bin that contains the largest number of cells. Gating for live cells was based on staining with the LIVE/DEAD® Fixable Dead Cell Stain Kit (Invitrogen, cat#L34955). All staining was performed with fluorophore-conjugated primary and isotype control antibodies. All antibodies were either purchased as fluorochrome conjugates or conjugated via amine-based Alexa Fluor antibody labeling kits (cat#A-20181, A20187, A-20185, A-20186, Invitrogen). Mouse and human active αvβ3 was detected fluorophore-conjugated WOW-1 antibody (a gift from Dr. Sanford Shattil). 10 mM Ethylenediaminetetraacetic acid (EDTA) and 2 mM MnCl2 were used as negative and positive controls for αvβ3 activation in flow cytometry experiments (FIG. 20B). Integrin αvβ5, a subtype known to react with the WOW-1 antibody, was monitored in mouse and human cells with a specific antibody (cat#LS-C36943, Lifespan Biosciences).

[2] = tested on: Fbn1D1545E/+ and Fbn1W1572C/+ mice (SSS mouse models); experiment: Histology (Masson's trichrome) and immunofluorescence of back skin of treated SSS mice; type: in vivo; conditions: RDEA119 25 mg/kg twice daily oral gavage, 8 weeks
Experimental: (§1) All antibodies used to treat mice or cells were azide-free. Male mice were treated with β1 integrin activating antibody (β1aAb, Rat Clone 9EG7, BD Biosciences, special-ordered >98% pure and azide-free) or an isotype-matched control (Rat IgG2a, κ, special-ordered >98% pure and azide-free, BD Biosciences) by intraperitoneal injection at 2 mg/kg every five days for twelve weeks, beginning at one month of age. Complete blood cell counts were performed to exclude pancytopenia in β1aAb-treated animals (FIG. 20A). For the TGFβ-Neutralizing trial, three-month-old male mice were treated with pan-specific TGFβ-Neutralizing antibody (Mouse Clone 1D11, catalog #MAB1835, R&D) or an isotype control (Mouse IgG1, Clone 11711, cat#MAB002, R&D) by intraperitoneal injection at 10 mg/kg every other day for twelve weeks.
RDEA119 was generously provided by Craig J. Thomas, Samarjit Patnaik, and Juan J. Marugan (National Institutes of Health Chemical Genomics Center, Rockville, Md., USA). […]
For tissue analysis, animals were euthanized through inhalational halothane (Sigma) or anesthetized with isofluorane. […] Dermal and subcutaneous fat thickness was measured using high-powered fields as described previously. […] Active αvβ3 was detected using the WOW-1 antibody (a gift from Dr. Sanford Shattil) and an anti-mouse Alexa Fluor-594 F(ab′)2 fragment secondary (Invitrogen cat#A11020). […]

[3] = tested on: Fbn1D1545E/+ and Fbn1W1572C/+ mice (SSS mouse models); experiment: In vivo drug treatment of SSS mouse models: clinical stiffness score and stretched skin area/total surface area ratio; conditions: RDEA119 25 mg/kg twice daily by oral gavage, 8 weeks from 1 month of age
Experimental: as §1
RDEA119 was generously provided by Craig J. Thomas, Samarjit Patnaik, and Juan J. Marugan (National Institutes of Health Chemical Genomics Center, Rockville, Md., USA). RDEA119 was reconstituted in 10% 2-hydroxypropyl-betacyclodextrin (Sigma-Aldrich) dissolved in PBS, and administered twice daily by oral gavage at a dose of 25 mg/kg. […]
A clinical stiffness score was assigned by five blinded observers. […] Mice were assessed in random order. […] Early in the course of studies, the same mice were assessed by the same observer on a different day. […]

SSc fibroblasts [4] = experiment: qPCR of miR-29a and collagen mRNAs in cultured SSc fibroblasts; type: cell-based, human; conditions: inhibitors SD208 (1 μM), U0126 (10 μM)
Experimental: Primary human dermal fibroblasts (HDFs) were derived from skin biopsies from 5 patients with active diffuse systemic sclerosis and 6 healthy controls. Biopsies were taken from the forearm and cultured as previously described. All experiments were performed in cell lines at low (<5) passage. Primary mouse embryonic fibroblasts (MEFs) were derived from E13.5 embryos as described previously. Murine plasmacytoid dendritic cells (pDCs) were isolated from the spleens of wild-type C57B16/J mice using the Plasmacytoid Dendritic Cell Isolation Kit II (cat#130-092-786, Miltenyi Biotec) and a midiMACS™ Separator (cat#130-042-302, Miltenyi Biotec) according to the manufacturer's instructions. The pDC-containing cell suspensions routinely had greater than 95% purity, as detected by flow cytometry.
(§2) All cells were counted at splitting and all treatments were performed at 70% confluency. Cells were serum starved 48 hours prior to stimulation with 2 ng/mL recombinant TGFβ1 (cat#240-B-010, R&D). When TGFβ1 or vehicle was added, cell culture dishes were immediately rocked on the same rocker three times at 5% CO2, 37° to control for mechanical MAPK activation. Before lysate harvest, cells were washed with pre-warmed (42°) 1×PBS (Gibco®). All antibody treatments of human fibroblasts were added during starvation 48 hours before TGFβ1 stimulation while inhibitors SD208 (1 μM) and UO126 (10 μM) (cat#s 616456 and 662005, EMD Millipore) were added 6 hours prior to stimulation. Antibodies used in vitro were mouse IgG1 (0.2 mg/mL, Clone P3.6.2.8.1, cat#16-4714-81, eBiosciences), IgG2a (0.2 mg/mL, Clone eBM2a, cat#16-4724, eBiosciences), αvβ3-blocking (30 μg/mL, Clone LM609, cat#MAB1976Z, Millipore), β1-activating (7 μg/mL, Clone TS2/16, cat#14-0299, eBiosciences), and β1-blocking (0.2 mg/mL, Clone P4C10, cat#MAB1987Z, Millipore) antibodies.
Total RNA was isolated from cultured cells or tissue using Trizol (Invitrogen) according to the manufacturer's protocol. Quantitative PCR for miR-29a and 18S rRNA was performed using pre-designed Taqman primers and probes (ABI) according to manufacturer's instructions. Relative quantification for each transcript was obtained by normalizing against 18S transcript abundance according to the formula 2^−Ct/2^−Ct(18S).

SSc fibroblasts [5] = experiment: In vitro TGFβ1 stimulation of SSc dermal fibroblasts, Western blotting of pSMAD3 and pERK1/2; type: cell-based, human
Experimental: as §2
Before lysate harvest, cells were washed with pre-warmed ([…]) 1×PBS (Gibco®). […] The relative intensities were measured using LiCor Odyssey software. […]

T1 sequence (P06756 31-889 limits assumed): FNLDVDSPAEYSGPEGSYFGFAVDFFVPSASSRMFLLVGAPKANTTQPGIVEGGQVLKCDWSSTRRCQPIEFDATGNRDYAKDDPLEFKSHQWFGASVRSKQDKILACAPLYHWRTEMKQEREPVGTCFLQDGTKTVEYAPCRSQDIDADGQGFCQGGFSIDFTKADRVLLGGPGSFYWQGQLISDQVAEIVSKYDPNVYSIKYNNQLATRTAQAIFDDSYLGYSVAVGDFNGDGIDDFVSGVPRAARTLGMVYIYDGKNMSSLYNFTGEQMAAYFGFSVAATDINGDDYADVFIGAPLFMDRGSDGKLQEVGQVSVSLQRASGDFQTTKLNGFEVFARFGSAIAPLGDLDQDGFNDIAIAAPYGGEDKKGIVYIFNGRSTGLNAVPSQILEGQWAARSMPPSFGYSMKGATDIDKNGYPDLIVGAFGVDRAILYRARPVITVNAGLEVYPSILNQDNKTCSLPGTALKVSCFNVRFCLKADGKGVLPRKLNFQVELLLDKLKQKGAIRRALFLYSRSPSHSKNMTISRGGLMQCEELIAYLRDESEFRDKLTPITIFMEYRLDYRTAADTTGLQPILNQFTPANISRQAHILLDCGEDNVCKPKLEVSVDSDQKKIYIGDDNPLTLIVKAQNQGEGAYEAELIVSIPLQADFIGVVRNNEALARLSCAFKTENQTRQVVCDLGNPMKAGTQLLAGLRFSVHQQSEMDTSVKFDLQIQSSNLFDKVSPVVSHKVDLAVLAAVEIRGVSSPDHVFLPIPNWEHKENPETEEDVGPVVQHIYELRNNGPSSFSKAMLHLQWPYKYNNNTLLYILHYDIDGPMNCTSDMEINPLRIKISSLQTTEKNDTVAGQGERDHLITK
T1 sequence (P06756 891-1048 partner limits assumed): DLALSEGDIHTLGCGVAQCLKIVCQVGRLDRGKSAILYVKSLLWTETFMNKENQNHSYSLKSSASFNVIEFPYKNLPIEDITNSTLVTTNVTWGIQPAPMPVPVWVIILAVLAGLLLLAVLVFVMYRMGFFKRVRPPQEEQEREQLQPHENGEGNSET
T1 sequence (P05106 27-788): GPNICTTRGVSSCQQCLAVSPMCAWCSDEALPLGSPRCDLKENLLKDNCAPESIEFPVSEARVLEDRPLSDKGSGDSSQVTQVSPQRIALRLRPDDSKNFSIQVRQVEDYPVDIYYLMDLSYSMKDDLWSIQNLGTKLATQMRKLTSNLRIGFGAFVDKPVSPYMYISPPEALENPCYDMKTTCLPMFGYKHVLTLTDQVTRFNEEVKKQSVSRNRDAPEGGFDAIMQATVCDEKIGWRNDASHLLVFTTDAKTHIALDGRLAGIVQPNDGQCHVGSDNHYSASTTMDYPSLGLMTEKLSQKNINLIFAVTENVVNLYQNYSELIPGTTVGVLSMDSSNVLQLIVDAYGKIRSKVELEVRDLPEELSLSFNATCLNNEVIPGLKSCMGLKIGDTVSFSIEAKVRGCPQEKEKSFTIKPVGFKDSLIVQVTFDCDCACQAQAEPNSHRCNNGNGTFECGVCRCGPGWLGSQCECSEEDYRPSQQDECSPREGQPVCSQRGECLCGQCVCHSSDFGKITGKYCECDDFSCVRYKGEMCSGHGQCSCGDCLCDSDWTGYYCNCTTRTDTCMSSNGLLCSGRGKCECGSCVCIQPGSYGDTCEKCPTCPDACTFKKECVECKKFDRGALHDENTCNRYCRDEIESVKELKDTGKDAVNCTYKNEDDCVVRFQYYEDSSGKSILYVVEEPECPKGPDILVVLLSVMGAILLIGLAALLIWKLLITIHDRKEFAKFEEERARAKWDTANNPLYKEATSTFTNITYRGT

SMILES | WOW-1 immunoreactivity [1] | expression of miR-29a (SSc fibroblasts [4]) | expression of type IA2 and III collagen genes (SSc fibroblasts [4]) | other results
O=C(O)CN(CCN(CC(=O)O)CC(=O)O)CC(=O)O [EDTA, Ethylenediaminetetraacetic acid] | reduced immunoreactivity | – | – | –
[Cl][Mn][Cl] [MnCl2] | increased immunoreactivity | – | – | –
COc1cc(F)c(F)c(Nc2ccc(I)cc2F)c1NS(=O)(=O)C1(C[C@H](O)CO)CC1 [RDEA119] | – | – | – | dermal collagen accumulation [2]: prevents; loss of subcutaneous fat [2]: prevents; skin stiffness [3]: prevents skin stiffness
Fc1ccc(Cl)cc1-c1nc(Nc2ccncc2)c2nccnc2n1 [SD208] | – | increased expression of miR-29a, this finding did not reach significance; also recorded: normalized | normalized | ERK1/2 activation (pERK1/2) in response to TGFβ1 (SSc fibroblasts [5]; 2 ng/mL TGFβ1, 5 minutes, antibodies added 48 hours before, SD208 1 μM 6 hours prior): inhibited; also recorded: sensitive; Smad3 phosphorylation (pSMAD3) in response to TGFβ1 (SSc fibroblasts [5]; 2 ng/mL TGFβ1, SD208 1 μM 6 hours prior): sensitive
N#CC(=C(/N)Sc1ccccc1N)/C(C#N)=C(\N)Sc1ccccc1N [U0126] | – | increased miR-29a levels; also recorded: increases miR-29a expression | reduced collagen expression; also recorded: reduces type IA2 and III collagen expression | –
